Where “and” joins values, the source holds several entries; their conditions need not be identical. Identical values can stand only once.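 96-well plates; 48 h exposure; 5 concentrations. Endpoints by linear interpolation between flanking doses. Not reached: highest tested concentration assigned. GI50 is the concentration that inhibits growth by half. TGI is the concentration that stops growth completely.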
Tests used:
Test in all cases: growth of human tumour cells (NCI), 48 h
[1] = test system: CCRF-CEM leukemia
[2] = test system: HT29 colon
[3] = test system: LOX IMVI melanoma
[4] = test system: NCI/ADR-RES ovarian
[5] = test system: OVCAR-8 ovarian
[6] = test system: SK-MEL-2 melanoma
[7] = test system: SK-MEL-28 melanoma
[8] = test system: SN12C renal
[9] = test system: SNB-19 CNS
[10] = test system: UO-31 renal

| Compound | GI50 [1] [µM] | TGI [1] | GI50 [2] [µM] | TGI [2] [µM] | GI50 [3] [µM] | TGI [3] [µM] | GI50 [4] [µM] | TGI [4] [µM] | GI50 [5] [µM] | TGI [5] [µM] | GI50 [6] [µM] | TGI [6] | GI50 [7] [µM] | TGI [7] | GI50 [8] [µM] | TGI [8] | GI50 [9] [µM] | TGI [9] | GI50 [10] [µM] | TGI [10] |
| --- | --- | --- | --- | --- | --- | --- | --- | --- | --- | --- | --- | --- | --- | --- | --- | --- | --- | --- | --- | --- |
| O=C(/C=C/c1ccco1)c1cccc(Nc2nc(Nc3ccccc3)nc(Nc3ccccc3)n2)c1 | 3.07 | > 24.1 µM | 17.2 | > 100 | 17.9 | > 100 | 36.3 | > 100 | 10 | > 83.2 | 20.5 | > 100 µM | 23.7 | > 100 µM | 35 | > 100 µM | > 100 | > 100 µM | 3.97 | > 69.6 µM |
| CC(=O)O[C@H]1CC[C@@]2(C)[C@@H](CC[C@@H]3[C@@H]2CC(=O)[C@@]2(C)[C@H]3C[C@@H]3CC(C)=CC(=O)[C@@H]32)C1 | – | > 100 µM | – | > 100 | – | > 100 | – | > 100 | – | > 100 | – | > 100 µM | – | > 100 µM | – | > 100 µM | – | > 100 µM | – | > 100 µM |
| COc1nc(C(Cl)(Cl)Cl)c(Cl)c(OC)c1Cl | > 45.5 | > 64.4 µM and 121 µM | > 57 | 96.5 | – | 62.6 | – | 58.4 | > 61.5 | 55.6 | – | > 31.6 µM and 70.8 µM | > 50.4 | > 83.5 µM and 75.6 µM | – | > 52.9 µM and 74 µM | > 40.8 | > 59.3 µM and 59.4 µM | – | > 64.3 µM and 75.4 µM |
| CC/C(=C(/c1ccc(Cl)cc1)c1ccc(OCCCN(C)C)cc1)c1ccc(OC)cc1 | 1.79 | 7.19 µM | 1.06 | 2.42 | 0.868 | 1.64 | 7.27 | 16.3 | 8.05 | 17.6 | 8.01 | 15.6 µM | 1.33 | 3.84 µM | 5.05 | 11.8 µM | 1.88 | 5.78 µM | 5.3 | 11.8 µM |
| COc1cccc(-c2nn(C)c3sc(C(=O)NCCN4CCN(c5ccccc5F)CC4)cc23)c1 | 8.54 | > 100 µM | 4.66 | 51.3 | 13.4 | > 100 | 13.8 | > 100 | 7.85 | > 100 | 33.9 | > 100 µM | 11.1 | 33.4 µM | 79.5 | > 100 µM | 21 | > 100 µM | 4.56 | 47.8 µM |
| CN(Cc1cccc(Cl)c1)c1ccc(CO)c(Cl)c1 | 22.7 | > 73.6 µM | 9.93 | 31.2 | 14.2 | 27.5 | 14.6 | 44.1 | 15.8 | 53.8 | 9.88 | 27.4 µM | 16.4 | 43.9 µM | 14.3 | 37.2 µM | 27.3 | > 100 µM | 8.41 | 37.4 µM |
| COc1cc(-c2nc3cc(Cl)c(Cl)cc3[nH]2)ccc1OCC(=O)N=Nc1c(O)[nH]c2ccccc12 | 0.322 | 17.5 µM | 0.352 | 4.72 | 0.192 | 0.368 | > 79.9 | > 100 | 0.327 | 1.59 | 1.33 | 3.27 µM | 1.38 | 2.68 µM | 0.506 | 1.8 µM | 0.657 | 5.35 µM | > 52.6 | > 100 µM |
| O=C1/C=C/[C@@H](O)[C@@H]2C[C@@H](O)C[C@H]2/C=C/CCCCO1 | 0.595 | – | 0.338 | > 100 | 0.223 | 0.539 | 0.475 | > 54.1 | 0.516 | > 100 | 0.257 | – | 0.28 | – | 0.954 | > 100 µM | 0.749 | > 100 µM | 0.304 | > 38.1 µM |
| C=CCOc1ccc2c(c1)CC[C@@H]1[C@@H]2CC[C@]2(C)C(=O)/C(=N/O)C[C@@H]12 | 2.51 | 8.67 µM | 1.81 | 4.68 | 2.49 | 8.08 | 6.92 | > 52 | 9.45 | > 60.2 | 3.08 | 10.4 µM | > 46.5 | > 75.1 µM | 4.01 | > 44.2 µM | 11.4 | > 55.1 µM | 2.39 | 39.6 µM |
| COc1ccc(/C=N/C2=C(C#N)C(c3ccccc3)c3ccc4ccccc4c3O2)cc1 (stereo unspecified) | 0.377 | > 100 µM | 0.53 | > 100 | 0.587 | > 51.4 | 0.262 | – | 0.486 | > 100 | 0.545 | > 100 µM | 1.37 | > 100 µM | 0.68 | > 100 µM | 0.54 | > 100 µM | 0.368 | > 100 µM |
